Data as given in US20100016402A1, “UNIT DOSE FORMULATIONS OF KETOROLAC FOR INTRANASAL ADMINISTRATION” (Roxro Pharma, Inc., priority 2008, published 2010).
Where a name gives a salt, the structure may show the parent alone.

Columns and labels:
[1] = solubility in water at different pH
[2] = degradation of ketorolac in solution; format: physicochemical; details: 1-keto analog proportional to amount of ketorolac and available oxygen
Source text: The amount of 1-keto analog produced is generally proportional to the amount of ketorolac in solution and available oxygen (e.g., in the head space of the container, such as those described in U.S. patent application Ser. No. 12/404,250, filed on Mar. 13, 2009, entitled, “Device for Intranasal Administration,”).

[3] = solubility of local anesthetic in ketorolac solution; format: physicochemical; details: 15% ketorolac, not re-dispersed by heating or adjusting the pH

SMILES: CCOC(=O)c1ccc(N)cc1 [benzocaine hydrochloride]
- pH of the solution in water [1]: about 1.5
- solubility in water ([1]; water, pH not adjusted): soluble in water

SMILES: O=C(c1ccccc1)c1ccc2n1CCC2C(=O)O (stereo not shown) [ketorolac, 5-benzoyl-2,3-dihydro-1H-pyrrolizine-1-carboxylic acid]
- stability in solution (degradation products) [2]: produces several degradation products

SMILES: CCOC(=O)c1ccc(N)cc1 [benzocaine]
- precipitation in the presence of ketorolac ([3]; 6% benzocaine solution): precipitation was observed
- precipitation in the presence of ketorolac ([3]; 10% benzocaine solution): precipitation was observed
- solubility ([1]; low pH): soluble
- solubility in water ([1]; physiological pH ranges of 4.5 to 7.2): low solubility
